Patent publication US20190300845A1, “SEQUENTIAL ADDITION OF MOLECULAR GERMINANTS TO BACTERIAL SPORES” (NOVOZYMES BIOAG A/S, priority 2016, published 2019)

Experiments:
[1] = tested on: spores from Bacillus pumilus strain SB3189; assay: Germinant testing by decrease in relative OD580; format: cell-based; details: substance alone, at a concentration of 3 mM
[2] = tested on: Bacillus subtilis strain SB3086 spores; assay: Sequential germinant addition, germination by dipicolinic acid (DPA) release (Tb-DPA fluorescence); format: cell-based
Description: Bacterial spores from Bacillus subtilis strain SB3086 were prepared as described in the first paragraph of Example 1. The spore preparations were washed in sterile 4° C. water by centrifugation (10,000×g, 1 minute), aspirating the supernatant from the pellet, and suspending the spore pellet in water. This was performed three consecutive times. Optical densities of washed spore preparations were measured in sterile water at 4° C. using a Synergy H4 Multi-Mode Reader (Bio-Tek). The spore preparations were set to 5 OD600 units per ml. By phase-contrast microscopy, 99% of the particles in the samples appeared to be ungerminated spores.
The spores were then treated with 1 mM of L-alanine for 24 hours at 4° C. […] In one experiment, spores that had been treated with 1 mM L-alanine for 24 hours were washed in water to remove the L-alanine. Negative controls were not treated with L-alanine. Spores to be used as positive controls were boiled for 2 hours to release dipicolinic acid (see below).
(§1) Germination of spores in these studies was determined by measuring dipicolinic acid (DPA). DPA is about 10% of the mass of endospores, which is generally released when germination occurs. Boiling spores generally releases all of the DPA (used as a positive control). DPA release was detected using terbium chloride (TbCl3), as described below.
(§2) To perform the germination assays, 30 μl of spores were added to wells of a 96-well flat-bottom microtiter plate. Subsequently, 35 μl of a 250 μM TbCl3 stock was added. At time 0, 85 μl of a D-fructose solution was added, to give a final concentration of 10 mM D-fructose. The solution was mixed by pipetting, the microtiter plate was placed into a plate reader (Synergy H4 Multi-Mode Reader, Bio-Tek), and the sample wells were measured for presence of a fluorescent Tb-DPA product over time. Tb-DPA is excited at 270 nm and emits at 545 nm. All experimental samples were tested in triplicate. Baseline controls for each sample were generated by omitting L-alanine and these were performed in duplicate. All sample wells were measured immediately after D-fructose was added (time 0) and then over time. For each time point, the data were normalized to values for the spores that had been boiled for two hours to force 100% release of DPA from the spores.

[3] = tested on: Bacillus pumilus strain SB3189 spores; assay: as above; format: cell-based
Description: as §1, §2
The experiment was generally performed as described in Example 3. SB3189 spores were treated with various concentrations of L-alanine (0.0 mM, 0.5 mM, 1.0 mM, 2.0 mM, 3.0 mM, 4.0 mM, 5.0 mM, 6.0 mM, 7.0 mM, 8.0 mM, 9.0 mM, or 10.0 mM) for 24 hours at 4° C. […] D-fructose (10 mM) was then added to the L-alanine-treated spores (this was time 0) and DPA levels were measured over time.

[4] = tested on: Bacillus megaterium strain SB3112 spores; assay: KBr pretreatment, germination by dipicolinic acid (DPA) release (Tlag, Gmax); format: cell-based
Description: as §1, §2
These studies were generally performed as described in Example 3. SB3112 spores, heat-activated or not heat-activated (not heat-activated are called “native”), were treated with 0.5, 3.0, or 10.0 mM KBr overnight at either 4° or 22° C. […] The time at which the subsequent addition was made to the spores was considered time 0. DPA concentration was measured over time.
To facilitate comparison of the different samples, values for Tlag and Gmax were calculated for each spore treatment. Tlag is the time after exposure to germinants that a population of spores begins to rapidly release DPA into the environment. Tlag indicates, in part, how rapidly a population of spores responds to germinants. Gmax is the maximum percentage of DPA that a sample releases during an experiment, divided by the DPA released by the sample when boiled. Gmax is proportional to the percentage of spores in a population that germinates.

[5] = tested on: spores from Bacillus megaterium strain SB3112; assay: Germinant testing by decrease in relative OD580; format: cell-based; details: amino acid along with KBr and D-glucose; each 3 mM
[6] = tested on: spores from Bacillus amyloliquefaciens strain SB3615; assay: Germinant testing by decrease in relative OD580

Compound: O=C(CO)[C@@H](O)[C@H](O)[C@H](O)CO [D-fructose]
- Germination of spores (decrease in relative OD580) [1]: None
- Germination (DPA release) with D-fructose ([2]; 10 mM D-fructose, spores not treated with L-alanine): did not germinate
- Germination (DPA release) in presence of D-fructose ([3]; 10 mM D-fructose, spores not treated with L-alanine (0 mM)): did not germinate

Compound: [Br-].[K+] [KBr]
- Gmax ([4]; heat-activated spores, 0.5 mM KBr overnight at 4° C. before full germinant solution): 92%
- Gmax ([4]; heat-activated spores, 0.5 mM KBr overnight at 22° C. before full germinant solution): 65%
- Gmax ([4]; heat-activated spores, 3.0 mM KBr overnight at 4° C. before full germinant solution): 123%
- Gmax ([4]; heat-activated spores, 3.0 mM KBr overnight at 22° C. before full germinant solution): 65%
- Gmax ([4]; heat-activated spores, 10.0 mM KBr overnight at 4° C. before full germinant solution): 85%
- Gmax ([4]; heat-activated spores, 10.0 mM KBr overnight at 22° C. before full germinant solution): 61%
- Gmax as compared to spores not pretreated with KBr ([4]; heat-treated spores, at 22° C., 0.5, 3.0, or 10.0 mM KBr): decreased
- Percentage of spores that germinated (Gmax) as compared to spores not pretreated with KBr ([4]; native or heat-treated spores, at 4° C., 3.0 or 10.0 mM KBr): increased
- Gmax ([4]; native spores, 0.5 mM KBr overnight at 4° C. before full germinant solution): 24%
- Gmax ([4]; native spores, 0.5 mM KBr overnight at 22° C. before full germinant solution): 62%
- Gmax ([4]; native spores, 3.0 mM KBr overnight at 4° C. before full germinant solution): 31%
- Gmax ([4]; native spores, 3.0 mM KBr overnight at 22° C. before full germinant solution): 96%
- Gmax ([4]; native spores, 10.0 mM KBr overnight at 4° C. before full germinant solution): 29%
- Gmax ([4]; native spores, 10.0 mM KBr overnight at 22° C. before full germinant solution): 103%
- Tlag as compared to spores not pretreated with KBr ([4]; some samples: 4° C. native spores 3.0 or 10.0 mM KBr, 22° C. heat-activated spores 0.5 mM KBr): different

Compound: C[C@H](N)C(=O)O [L-alanine]
- Germination of spores (decrease in relative OD580) [1]: None
- Germination of spores (decrease in relative OD580) [5]: caused germination of the spores
- Germination as a result of the L-alanine treatment, determined by microscopy ([2]; 1 mM L-alanine for 24 hours at 4° C., before D-fructose): No germination
- Germination (DPA release) when D-fructose was added ([2]; L-alanine 24 hours, washed out prior to addition of D-fructose): did not germinate
- Germination (DPA release) when D-fructose was added ([2]; spores treated with 1 mM L-alanine for 24 hours, then 10 mM D-fructose): germinated
- Germination due to the L-alanine treatment, determined by microscopy ([3]; 0.5-10.0 mM L-alanine for 24 hours at 4° C., before D-fructose): no germination
- Extent of germination versus amount of L-alanine ([3]; 0.5 to 10 mM L-alanine pretreatment, then 10 mM D-fructose): increased as the amount of L-alanine increased
- Germination (DPA release) on addition of D-fructose ([3]; spores treated with L-alanine 24 hours, then D-fructose (10 mM) at time 0): caused germination
- Molecules causing germination ([6]; strain SB3615, each substance 3 mM): L-alanine
- Germination of spores (decrease in relative OD580) ([6]; substance alone, 3 mM, heat-activated spores, 37° C., 70 minutes): could cause germination

Compound: N[C@@H](CS)C(=O)O [L-cysteine]
- Germination of spores (decrease in relative OD580) [1]: None

Compound: N[C@@H](Cc1c[nH]cn1)C(=O)O [L-histidine]
- Germination of spores (decrease in relative OD580) [5]: caused germination of the spores

Compound: CC[C@H](C)[C@H](N)C(=O)O [L-isoleucine]
- Germination of spores (decrease in relative OD580) [5]: caused germination of the spores

Compound: CC(C)C[C@H](N)C(=O)O [L-leucine]
- Germination of spores (decrease in relative OD580) [5]: caused germination of the spores

Compound: N[C@@H](Cc1ccccc1)C(=O)O [L-phenylalanine]
- Germination of spores (decrease in relative OD580) [5]: caused germination of the spores

Compound: O=C(O)[C@@H]1CCCN1 [L-proline]
- Germination of spores (decrease in relative OD580) [5]: caused germination of the spores

Compound: OC[C@H]1O[C@@](CO)(O[C@H]2O[C@H](CO)[C@@H](O)[C@H](O)[C@H]2O)[C@@H](O)[C@@H]1O [sucrose]
- Germination of spores (decrease in relative OD580) [1]: None
